Measured values: ChEMBL document CHEMBL1629568 (Antimicrob Agents Chemother, 2009)
Values after ≈ are worked out from the molar mass of the structure shown.

Columns and labels:
[1] = Cmax in Nocardia brasiliensis HUJEG-1 infected BALB/c mouse at 25 mg/kg, sc every 8 hrs by HPLC; type: ADME, organism-based; set-up: dose 25 mg/kg, route subcutaneous; conditions: in vivo
[2] = test system: Nocardia brasiliensis; assay: Antimicrobial activity against Nocardia brasiliensis HUJEG-1 by broth microdilution method; type: functional
[3] = Drug level in human plasma at 400 mg/day after 8 hrs; type: ADME, cell-free; conditions: read-out: Drug uptake

Cmax [1] | MIC [2] | concentration at 8 h [3] | Structure (SMILES)
2250 ng/mL | – | – | O=C(O)c1cn(C2CC2)c2cc(N3CCNCC3)c(F)cc2c1=O [CIPROFLOXACIN]
4300 ng/mL | 0.25 µg/mL (≈ 0.623 µM) | > 1000 ng/mL | COc1c(N2C[C@@H]3CCCN[C@@H]3C2)c(F)cc2c(=O)c(C(=O)O)cn(C3CC3)c12 [MOXIFLOXACIN]
